{
  "source": "patent US20210154372A1",
  "about": "“MEDICAL DEVICE WITH DRUG-ELUTING COATING AND INTERMEDIATE LAYER” (C.R. Bard, Inc., priority 2017, published 2021)",
  "key": {"[1]": {"tested_on": "tissues at the target site", "assay": "drug absorption by tissue after 0.2-2 minute deployment of coated balloon", "format": "in vivo", "settings": "coating with paclitaxel, after 0.2-2 minutes of deployment"}, "[2]": {"settings": "octanol/water; cited from earlier work"}, "Serum albumin": {"tested_on": "Serum albumin", "settings": "cited from earlier work"}, "[3]": {"assay": "stability of additive with paclitaxel under ethylene oxide sterilization, heating and aging", "settings": "reacted with paclitaxel"}, "[4]": {"settings": "BSA added; cited from earlier work"}},
  "data": [
    {"compound": "O=C1O[C@H](CO)[C@@H](O)[C@H]1O", "note": "[ribonic acid lactone]", "values": [
      {"measurement": "drug absorption by tissue", "setting": "[1]", "value": "unexpectedly high"}
    ]},
    {"compound": "COc1ccc(O)c(C(C)(C)C)c1", "note": "[Butylated hydroxyanisole]", "values": [
      {"measurement": "log P", "setting": "[2]", "value": 1.31}
    ]},
    {"compound": "CO[C@H]1C[C@@H]2CC[C@@H](C)[C@@](O)(O2)C(=O)C(=O)N2CCCC[C@H]2C(=O)O[C@H]([C@H](C)C[C@@H]2CC[C@@H](O)[C@H](OC)C2)CC(=O)[C@H](C)/C=C(\\C)[C@@H](O)[C@@H](OC)C(=O)[C@H](C)C[C@H](C)/C=C/C=C/C=C/1C", "note": "[rapamycin]", "values": [
      {"measurement": "protein bound", "setting": "Serum albumin", "value": 92, "unit": "%"},
      {"measurement": "share of protein binding that is to albumin", "setting": "Serum albumin; primarily to albumin", "value": 97, "unit": "%"}
    ]},
    {"compound": "O=C1O[C@H](CO)[C@@H](O)[C@H](O)[C@H]1O", "note": "[gluconolactone]", "values": [
      {"measurement": "drug absorption by tissue", "setting": "[1]", "value": "unexpectedly high"}
    ]},
    {"compound": "OC[C@@H](O)[C@@H](O)[C@H](O)[C@@H](O)CO", "note": "[sorbitol]", "values": [
      {"measurement": "log P", "setting": "[2]", "value": "−4.67"}
    ]},
    {"compound": "O=C(O)c1ccccc1", "note": "[benzoic acid]", "values": [
      {"measurement": "stability under ethylene oxide sterilization, heating, and aging process", "setting": "[3]", "value": "not stable"}
    ]},
    {"compound": "PEG-20 sorbitan monolaurate [Tween 20]", "values": [
      {"measurement": "log P", "setting": "[2]", "value": "about 3.0"}
    ]},
    {"compound": "CC(=O)O[C@H]1C(=O)[C@@]2(C)[C@H]([C@H](OC(=O)c3ccccc3)[C@]3(O)C[C@H](OC(=O)[C@H](O)[C@@H](NC(=O)c4ccccc4)c4ccccc4)C(C)=C1C3(C)C)[C@]1(OC(C)=O)CO[C@@H]1C[C@@H]2O", "note": "[paclitaxel]", "values": [
      {"measurement": "increase of solubility in PBS with the addition of BSA", "setting": "[4]", "value": "over 20 fold"}
    ]}
  ]
}
